The text below walks through data of patent US20260215432A1, “ANTIMICROBIAL CONJUGATED OLIGOELECTROLYTES AND METHODS THEREOF” (National University of Singapore, priority 2023, published 2026).

Test [1] has as its system MRSA. Briefly: Membrane depolarization assay (DiSC3(5)). It is filed as cell-based, S. aureus. The settings on record: DiSC3(5)-encapsulated MRSA cells. An excerpt: The interactions of DM6P with various bacterial cell membranes were first investigated through spectrometric methods. In normal cells, compartmentalization of the intracellular space by the lipid bilayer enables the maintenance of a transmembrane potential, which is necessary for regular cell division and energy production. The membrane-potential sensitive dye 3,3′-dipropylthiadicarbocyanine iodide (DiSC3(5)) accumulates within the membranes of healthy, polarized cells where its fluorescence is self-quenched. Depolarization of the membrane necessary to maintain this gradient causes the release of this dye, resulting in an increase in fluorescence intensity. […]
Determination of the extent of depolarization of bacterial cell membranes was carried out using a voltage sensitive dye DiSC3(5) (ThermoFisher, USA). The dye is able to accumulate within polarized healthy cell membranes with resulting quenched fluorescence. When the membrane is depolarized, subsequent ion permeabilization releases the dye from the membrane and gives rise to enhanced fluorescence intensity.^3 The assay was performed according to a modified protocol reported previously. […] The plate was incubated in the dark for 30 minutes, with the signal measured every 5 minutes until a stable baseline was observed. COEs were then added at varying concentrations and the fluorescence intensity was measured over time at 37° C. […]

Test [2] has as its system Methicillin-resistant S. aureus (ATCC BAA1717). Briefly: MIC, broth microdilution in CA-MHB. The class given is cell-based. As for the experimental part:
(§1) Antimicrobial activity was screened against a range of pathogens made up of clinically relevant ESKAPE pathogens by determination of the minimum inhibitory concentration (MIC) in cation-adjusted Mueller-Hinton broth (CA-MHB).
(§2) Minimum inhibitory concentrations of COEs were determined through a broth microdilution method in accordance with the Clinical and Laboratory Standards Institute (CLSI) guidelines M07-A10. A single bacterial colony was isolated from an overnight culture and grown to mid-log phase (OD600~0.8). Compounds were prepared as a stock solution in DMSO and diluted in a sterile flat-bottom 96-well plate in CA-MHB. Subsequent concentrations were prepared by two-fold dilution of the initial solution. An equivalent volume of bacteria was added to the compound to a final concentration of 5×10^5 cfu/mL. Plates were incubated at 37° C. for 16-18 hours, and read at OD600 using a microplate reader (TECAN Spark®). […] MIC values were determined for each compound in triplicate.
(In broth dilution the organism is exposed to a series of concentrations in liquid medium.)

Another test relates to S. aureus (ATCC 29213). Description: MIC, broth microdilution in CA-MHB. It is filed as cell-based. As for the experimental part: as §1, §2
For another test, the system named is E. facium (ATCC 19434). Briefly: MIC, broth microdilution in CA-MHB. Conditions: CA-MHB. The class given is cell-based. As for the experimental part: as §1, §2
The subject of test [3] is E. coli. K12 (ATCC 10798). Description: MIC, broth microdilution in CA-MHB. The class given is cell-based. The procedure: as §1, §2
Test [4] deals with P. aeruginosa (ATCC47085). Description: MIC, broth microdilution in CA-MHB. The class given is cell-based. As for the experimental part: as §1, §2
Test [5] deals with K. pneumoniae (carbapenem-resistant Enterobacterales) (ATCC BAA1705). Description: MIC, broth microdilution in CA-MHB. The class given is cell-based. The procedure: as §1, §2
In another test the test system is A. baumanii (ATCC 17978). Briefly: MIC, broth microdilution in CA-MHB. The class given is cell-based. As for the experimental part:
as §1, §2

Test [6] deals with E. faecalis OG1RF (ATCC 47077). Briefly: MIC, broth microdilution in CA-MHB. The class given is cell-based. As for the experimental part:
as §1, §2

The subject of test [7] is MRSA. Description: Propidium iodide influx assay. The class given is cell-based, S. aureus. Conditions: 0.5 to 2 μg mL^−1 (half to twice the MIC). The text has this:
Another hallmark of cytoplasmic membrane damage is an enhanced permeability towards small molecules. Propidium iodide (PI) is a membrane-impermeant organic dye that can be used to study potential mechanisms of action of antibiotics due to its enhanced fluorescence intensity upon binding to intracellular DNA. Treatment with molecules that cause membrane perturbations enable rapid influx of the dye, resulting in an increase in fluorescence emission that can be monitored over time. […] This difference hints at two plausible mechanisms of action that are concentration dependent. Similar observations have been made for tobramycin, where a protein inhibition mode of action at lower concentrations (<4 μg mL^−1) is supplanted by disruption of the outer membrane at higher concentrations (8 μg mL^−1).
The assay was performed according to a modified reported protocol.^4 Briefly, the corresponding bacteria was collected from mid-log cultures by centrifugation (7000 rpm, 10 minutes) and washed thrice with PBS. The pellet was then resuspended in the same buffer and diluted to an optical density of 2 by extrapolation. […] Fluorescence intensity was measured over time in a plate reader with an excitation wavelength of 525 nm and emission wavelength of 620 nm. Fluorescence signals were measured every 30 seconds and carried out in triplicate.

For test [8], the system named is A549 (lung epithelial cells). Description: Cytotoxicity against mammalian cell line. It is filed as cell-based. The procedure: The cytotoxicity of the TPP COEs was also tested against a mammalian cell line (A549).

Usually MIC stands for the lowest concentration that inhibits growth of the organism. In general, IC50 refers to the concentration that inhibits the measured activity by half. A high value points to lower potency.

Take `COc1cc(/C=C/c2ccc(OCCCCCC[P+](c3ccccc3)(c3ccccc3)c3ccccc3)c(OC)c2)ccc1OCCCCCC[P+](c1ccccc1)(c1ccccc1)c1ccccc1.[I-].[I-]` [DM6P]: the “depolarization of the bacterial membrane” value in the test on MRSA [1] is listed as “dose-dependent depolarization”. Further, in test [2] (CA-MHB), the “MIC MRSA” value was 1 µg/mL. The MIC was 1 µg/mL in test [2] (strain MRSA, Table 5); 1 µg/mL in [2] (towards MRSA, Table 3); 2 µg/mL in [3] (strain EC, Table 5); 4 µg/mL in test [4] (strain PA, Table 5); 8 µg/mL in [5] (strain CRKP, Table 5); 8 µg/mL against A. baumanii (ATCC 17978) (strain AB, Table 5). For the same molecule, in [6] (strain EF, Table 5), the MIC is 1 µg/mL. Moreover, in the test on S. aureus (ATCC 29213), the “MIC SA” value was 1 µg/mL. Also, the “MIC FAC” value with E. facium (ATCC 19434) came out at 1 µg/mL. For the same molecule, in [3] (CA-MHB), the “MIC EC” value was 2 µg/mL. Besides, the “MIC PA” value in [4] (CA-MHB) was 4 µg/mL. For the same molecule, the “MIC KP” value in test [5] (CA-MHB) amounted to 8 µg/mL. The “MIC AB” value with A. baumanii (ATCC 17978) (CA-MHB) amounted to 8 µg/mL. Also, the “MIC FAE” value in test [6] (CA-MHB) is 1 µg/mL. For the same molecule, the PI influx result with MRSA [7] was “PI influx was observed at 2×MIC”. This molecule also had an IC50 in [8] of 11 µg/mL.
